The values below come from ChEMBL document CHEMBL1201862, “PubChem BioAssay data set” (2004).

Calls of active or inactive are those of the source. For most assays here, no stated cut-off is given here; in the data, actives have a measured EC50 and inactives only a lower limit.

Assay [1] in a line: NIH3T3 cell viability loss – ATP luminescence, mouse fibroblasts, counter-screen, dose response (AID 2010).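 Further: cells exposed to compound for about 90 hours before reading.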 Format: functional, cell-based. For orientation: Counterscreens check selectivity or assay interference.
Assay [2] can be described thus: Trypanosoma cruzi growth suppression in host cells – NIH3T3 host cells, beta-gal luminescence, confirmation (AID 2044).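 Further: intracellular parasites grown in NIH/3T3 mouse fibroblasts as host cells; luminescent beta-galactosidase reporter signal from transgenic T. cruzi replicating inside host cells; inhibitors lower the luminescence signal.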 Format: functional, cell-based.
Another assay deals with Cytochrome P450 3A4 (Homo sapiens, UniProt P08684).
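Wherever AC50 is given: CYP3A4 tested as one member of a cytochrome P450 panel screen.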

Sequence of Cytochrome P450 3A4 (P08684 whole entry): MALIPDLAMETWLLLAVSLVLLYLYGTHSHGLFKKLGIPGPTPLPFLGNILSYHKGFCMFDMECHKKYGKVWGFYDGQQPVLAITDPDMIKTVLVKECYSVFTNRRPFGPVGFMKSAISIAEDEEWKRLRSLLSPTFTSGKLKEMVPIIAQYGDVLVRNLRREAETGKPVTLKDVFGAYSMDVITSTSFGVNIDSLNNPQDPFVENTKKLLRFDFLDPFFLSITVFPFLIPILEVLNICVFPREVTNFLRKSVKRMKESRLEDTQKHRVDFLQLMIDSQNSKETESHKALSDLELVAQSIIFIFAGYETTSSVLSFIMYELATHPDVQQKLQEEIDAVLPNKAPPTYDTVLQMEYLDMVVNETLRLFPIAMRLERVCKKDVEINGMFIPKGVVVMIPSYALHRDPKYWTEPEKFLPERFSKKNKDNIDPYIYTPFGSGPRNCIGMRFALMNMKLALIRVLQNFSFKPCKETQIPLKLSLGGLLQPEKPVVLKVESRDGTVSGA

For the compound `O=C(NCCc1csc(-c2ccccc2)n1)c1ccccc1F`, the EC50 (in general, the concentration that produces a half-maximal response) in assay [1] was > 60 µM (not active); in assay [2] it was 0.531 µM (active). `COCCn1c(=O)c(-c2cccs2)nc2cnc(OCc3ccccc3)nc21`: the AC50 (as a rule, the concentration giving half of the maximal activity seen) on Cytochrome P450 3A4 was 3.16 µM (inconclusive).

For `COc1ncc2ncc(=O)n(Cc3cccs3)c2n1`, the AC50 at Cytochrome P450 3A4 was 1.26 µM (inconclusive).

As for `CC(C)Cn1c(N)c(C(=O)CSc2nc3ccccc3c(=O)n2CCCN2CCOCC2)c(=O)n(C)c1=O`, the EC50 was > 60 µM (not active) in assay [1] and 1.5 µM (active) in assay [2].

Take `CCOc1ccc(CN(C)CC(=O)Nc2cc(OC)c([N+](=O)[O-])cc2C)cc1`: the EC50 is > 30 µM (not active) in assay [1] and 0.404 µM (active) in assay [2]. Consider `CN1CCN(c2ncnc3ccc(-c4ccc(C(=O)N(C)C)cc4)cc23)CC1`, for which the AC50 at Cytochrome P450 3A4 was 25.1 µM (inconclusive). For `CCOc1cccc(CN2CCCC(CCC(=O)NCc3ccccc3F)C2)c1O` (stereo not drawn), the EC50 in assay [1] is > 60 µM (not active); in assay [2] it was 0.222 µM (active). With `CN1CCN(c2nc(Nc3cccc(C(F)(F)F)c3)nc(N3CCOCC3)n2)CC1`, the EC50 is 10.3 µM (active) in assay [1] and 1.78 µM (active) in assay [2].

For the compound `Cc1nnc(Sc2cc(C(=O)NCCCN(C)Cc3ccccc3)c3ccccc3n2)s1`, the results for the EC50 in assay [1] and in assay [2] were > 60 µM (not active) and 0.521 µM (active), respectively. For `Cc1nn(-c2ccc([N+](=O)[O-])cc2)c2c1C(c1ccc(OC(F)F)cc1)N1C(=N2)C(=O)Nc2ccccc21` (stereo not drawn), the EC50 in assay [1] was > 60 µM (not active); in assay [2], 1.31 µM (active). As to `Cc1nc2cnc(Nc3ccccc3)nc2n(C[C@H]2CCCO2)c1=O`, at Cytochrome P450 3A4, the AC50 is 15.8 µM (inconclusive).

Turning to `COc1cc(NC(=O)c2cc(-c3ccc4c(c3)OCO4)on2)cc(OC)c1OC`, the figures for the EC50 in assay [1] and in assay [2] were > 30 µM (not active) and 0.115 µM (active), respectively. Consider `CC(C)N(CCC(=O)c1ccc2ccccc2c1)Cc1ccccc1`, for which the AC50 at Cytochrome P450 3A4 was 39.8 µM (inconclusive). On the same count and under the same terms, for `Cc1ccc(S(=O)(=O)NCCSc2nnnn2C)cc1` the value was 14.1 µM (inconclusive). As for `Clc1ccc(CNCCCSc2ncccn2)cc1Cl`, the EC50 is > 60 µM (not active) in assay [1] and 1.19 µM (active) in assay [2]. Take `CCCCN1C(=O)NC(=O)/C(=C(/CC)NCc2ccc(F)cc2)C1=O`: the AC50 at Cytochrome P450 3A4 was 28.2 µM (inconclusive). On to `CCOC(=O)c1nc(Nc2cc(C)cc(C)c2)c2ccccc2n1`, for which the EC50 in assay [1] was > 30 µM (not active); in assay [2], 2.85 µM (active). For `NS(=O)(=O)c1ccc(/N=N\c2cc3ccccc3c(C(=O)O)c2O)cc1`, at Cytochrome P450 3A4, the AC50 was 3.16 µM (inconclusive).

For `c1cncc(-c2nc(N3CCNCC3)c3ccccc3n2)c1`, the AC50 on Cytochrome P450 3A4 was 31.6 µM (inconclusive). For `OC(COc1ccc(F)cc1Cl)CN1CCC(Cc2ccccc2)CC1` (stereo not drawn), the figures for the EC50 in assay [1] and in assay [2] were > 30 µM (not active) and 4.04 µM (active), respectively. For the compound `CN(C)CCCN(C(=O)c1ccc(S(=O)(=O)N2CCc3ccccc32)cc1)c1nc2c(Cl)cccc2s1`, the EC50 in assay [1] was 20.2 µM (active); in assay [2], 0.206 µM (active). For `O=C(NCc1ccccc1)c1onc(CSc2ccccc2)c1C(=O)NCC1CC1`, the figures for the EC50 in assay [1] and in assay [2] were > 60 µM (not active) and 4.28 µM (active), respectively. As for `C/C=C(\C)CN1CCC(n2nccc2NC(=O)c2ccc(OC)cc2)CC1`, the values for the EC50 in assay [1] and in assay [2] were > 60 µM (not active) and 0.703 µM (active), respectively. For `CC(NC(=O)CN1C(=O)NC(Cc2ccccc2)(Cc2ccccc2)C1=O)C12CC3CC(CC(C3)C1)C2` (stereo not drawn) the same measures were > 30 µM (not active) and 2.81 µM (active). For `NS(=O)(=O)c1ccc(Nc2nc(-c3cccc([N+](=O)[O-])c3)cs2)cc1`, the EC50 in assay [1] is > 60 µM (not active); in assay [2], 4.08 µM (active). For `Brc1ccccc1OCCCCCN1CCCC1`, the values for the EC50 in assay [1] and in assay [2] were > 30 µM (not active) and 2.22 µM (active), respectively.
